Columns and labels:
[1] = system: blood pressure increase by angiotensin II; assay: Antagonism to blood pressure increase by angiotensin II in a spine destroyed (pithed) rat (test 4); format: in vivo, Wistar rat; conditions: intravenous administration, 3µg/kg angiotensin II, read-out: Inhibition of blood pressure increase by angiotensin II in pithed rat ED50(mg/kg) (test 4)
From the text: 4) Antagonism to blood pressure increasing by angiotensin II in a spine destroyed rat
Wistar rat anaesthetized with pentobarbital was fixed at dorsal position, and a cannula for measuring blood pressure was inserted into sinister arteria carotis communis, and a cannula for administration of the test compound into dexter external jugular vein and a cannula for administration of angiotensin II into sinister external jugular vein, ambilateral nervus vagus was cut, and artificial respiration was carried out. A thin bar made of metal was stabbed into spinal column through sinister orbita to destroy spine. Blood pressure was recorded on polygraph via pressure transducer from an arterial cannula. After blood pressure was stable for more than 30 min., 3µg/kg of angiotensin II was administered intravenously four times every 15 min, and every 5 min. before the administration of angiotensin II from the second administration onward, a solvent, a lower dose of the test compound, and a higher dose of the test compound were administered intravenously in this order to observe the blood pressure increasing response by angiotensin II. ED50 values were calculated from the inhibiting rate when the first blood pressure increase by angiotensin II was regarded as 100 %.

[2] = system: angiotensin II constriction in an isolated rabbit thoracic aorta; assay: Antagonism to angiotensin II constriction in an isolated rabbit thoracic aorta (test 3); conditions: test compound 10^-6 M for 20 minutes
Protocol: 3) Antagonism to angiotensin II constriction in an isolated rabbit thoracic aorta
A rectangular strip-like sample of thoracic aorta isolated from an anaesthetized rabbit was prepared, and the sample was suspended at 2.0 g of loaded tension in a Magnus tube filled with Krebs-Henseleitoid nutrition solution which was well aerated with 95% O2-5% CO2, and the constriction tension was measured using an isometric transducer. After the tension of the sample at rest became stable, accumulative administration of angiotensin II was carried out to obtain a concentration-action curve. Thereafter, the sample was washed with the same nutrition solution, then treated with test compound (10^-6 M) for 20 minutes to obtain again a concentration-action curve of angiotensin II. The results were obtained as followed: generated maximum tension at the first accumulative administration of angiotensin II was regarded as 100 %, and the 50 % effective concentration (ED50) was obtained in the presence or absence of the test compound, and pA2 value was calculated according to the following equations: • pA2=-logKB KB=C/{(A'/A)-1} • C; concentration of the test compound (M) • A'; ED50 in the presence of test compound (M) • A; ED50 in the absence of the test compound (M)

[3] = target: Angiotensin II receptor; assay: In vitro angiotensin II mesenteric artery receptor binding assay (test 1); conditions: rat mesenteric artery membrane fraction, 0.2 nM 125I-Ang II, 22°C, 90 minutes
Method in brief: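 Rat mesenteric artery membranes ([…] protein equivalent) incubated with 0.2 nM ^125I-Ang II and compound, 90 min at 22°C, pH 7.2 Tris buffer. Bound radioactivity counted after filtration; nonspecific binding defined with 1 µM unlabeled angiotensin II.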

[4] = system: blood pressure increase by angiotensin II; assay: Blood pressure increase by angiotensin II-inhibiting test, intraduodenal administration, anesthetized normotensive rat; format: in vivo
[5] = system: hypertensive rat model (SHR); assay: Oral administration test in hypertensive rat model (SHR); format: in vivo; conditions: 10 mg/kg oral administration

CCCc1nc2c(=O)n3n(c(=O)c2n1Cc1ccc(-c2ccccc2-c2nnn[nH]2)cc1)C1CCC3(COCC(=O)OC(C)(C)C)CC1 [Compound No. 223, 5-t-butoxycarboxylmethoxymethyl-5,8-ethano-2-n-propyl-5,6,7,8-tetrahydro-1-[{2'-(1H-tetrazol-5-yl)biphenyl-4-yl}methyl]-1H-1,3,4a,8a-tetraza-cyclopentanaphthalene-4,9-dione] was tested, and the ED50 [1] was 0.1 mg/kg, the “Inhibition of rabbit aorta constriction pA2 (test 3)” value (“Inhibition” for short) [2] was 9.68 and the IC50 [3] was 9.8 nM.

For CCCc1nc2c(=O)n3n(c(=O)c2n1Cc1ccc(-c2ccccc2-c2nn[nH]n2)cc1)C1CCC3(C(=O)NC(C)(C)C)CC1 [Compound No. 235, 4,9-dioxo-5,8-ethano-2-n-propyl-5,6,7,8-tetrahydro-1-[{2'-(1H-tetrazol-5-yI)biphenyl-4-yl}methyl]-1H-1,3,4a,8a-tetraza-cyclopentanaphthalene-5-carboxy-N-t-butylamide], the ED50 [1] was 0.07 mg/kg, the “Inhibition” value [2] was 9.62 and the IC50 [3] was 21 nM.

CCCc1nc2c(n1Cc1ccc(-c3ccccc3-c3nn[nH]n3)cc1)C(=O)N1C3CCC(CC3)N1C2 [Compound No. 438, 5,8-ethano-2-n-propyl-5,6,7,8-tetrahydro-1-[{2'-(1H-tetrazol-5-yl)biphenyl-4-yl}methyl],1H,4H-1,3,4a,8a-tetraza-cyclopentanaphthalene-9-one] was tested, and the ED50 [1] was 0.37 mg/kg, the “Inhibition” value [2] was 8.57 and the IC50 [3] was 7.5 nM.

CCCc1nc2c(n1Cc1ccc(-c3ccccc3-c3nn[nH]n3)cc1)C(=O)N1N(C2)C2(C)CCC1(C)CC2 [Compound No. 450, 5,8-dimethyl-5,8-ethano-2-n-propyl-5,6,7,8-tetrahydro-1-[{2'-(1H-tetrazol-5-yl)biphenyl-4-yl}methyl)-1H,4H-1,3,4a,8a-tetraza-cyclopentanaphthalene-9-one] was tested, and the ED50 [4] was 0.95 mg/kg, the action lasting time ([4]; 3 mg/kg) was “not less than 5 hours” and the ED50 [1] was 0.32 mg/kg. For the same compound, the “Inhibition” value [2] was 9.92 and the IC50 [3] was 1.7 nM.

In the case of CCCCc1nc2c(n1Cc1ccc(-c3ccccc3-c3nn[nH]n3)cc1)C(=O)N1N(C2)C2(C)CCC1(C)CC2 [Compound No. 451, 2-n-butyl-5,8-dimethyl-5,8-ethano-5,6,7,8-tetrahydro-1-[{2'-(1H-tetrazol-5-yl)biphenyl-4-yl}methyl]-1H,4H-1,3,4a,8a-tetraza-cyclopentanaphthalene-9-one], the ED50 [4] is reported as 0.84 mg/kg, the action lasting time ([4]; 1 mg/kg) is reported as “not less than 5 hours” and the ED50 [1] is reported as 0.63 mg/kg. For the same compound, the “Inhibition” value [2] was 10.04, the vasodepressor activity [5] was “significant vasodepressor activity over 24 hours” and the IC50 [3] was 1.9 nM.

CCCc1nc2c(n1Cc1ccc(-c3ccccc3-c3nnn[nH]3)cc1)C(=O)N1N(C2)C2(CC)CCC1(CC)CC2 [Compound No. 454, 5,8-diethyl-5,8-ethano-2-n-propyl-5,6,7,8-tetrahydro-1-[{2'-(1H-tetrazol-5-yl)biphenyl-4-yl}methyl]-1H,4H-1,3,4a,8a-tetraza-cyclopentanaphthalene-9-one] was tested, and the ED50 [4] was 1.28 mg/kg, the action lasting time ([4]; 3 mg/kg) was “not less than 5 hours” and the ED50 [1] was 0.34 mg/kg. For the same compound, the “Inhibition” value [2] was 10.34 and the IC50 [3] was 3.5 nM.

For CCCCc1nc2c(n1Cc1ccc(-c3ccccc3-c3nnn[nH]3)cc1)C(=O)N1N(C2)C2(CC)CCC1(CC)CC2 [Compound No. 455, 2-n-butyl-5,8-diethyl-5,8-ethano-5,6,7,8-tetrahydro-1-[{2'-(1H-tetrazol-5-yl)biphenyl-4-yl}methyl]-1H,4H-1,3,4a,8a-tetraza-cyclopentanaphthalene-9-one], the ED50 [4] was 0.81 mg/kg, the action lasting time ([4]; 1 mg/kg) was “not less than 5 hours” and the ED50 [1] was 0.64 mg/kg. The “Inhibition” value [2] was 8.82 and the IC50 [3] was 3.3 nM.
